Counter-ions that a name gives are not always drawn.
Test: MIC of test compounds against various organisms
Assay type: cell-based
Conditions: not given
Procedure: The MIC (μg/ml) of test compounds against various organisms was determined: S. aureus Oxford, S. aureus WCUH29, S. pneumoniae 1629, S. pneumoniae N1387, S. pneumoniae ERY 2, E. faecalis I, E. faecalis 7,H. influenzaeQ1, H. influenzae NEMC1, M. catarrhalis 1502.

| SMILES | MIC |
| --- | --- |
| COc1ccc2nccc(OCC3CCN(CCc4ccc5c(c4)OCCO5)CC3)c2n1 [Example 21, 8-{1-[2-(2,3-Dihydro-benzo[1,4]dioxin-6-yl)-ethyl]-piperidin-4-ylmethoxy}-2-methoxy-[1,5]naphthyridine hydrochloride] | ≤ 64 µg/mL |
| COc1ccc2nccc(NC(=O)C3CCN(CC(O)c4cnc5c(c4)NC(=O)CS5)CC3)c2n1 (stereo not drawn) [Example 15, R and S-1-[2-Hydroxy-2-(2-oxo-2,3-dihydro-1H-pyrido[2,3-b][1,4]thiazin-7-yl)-ethyl]-piperidine-4-carboxylic acid (6-methoxy-[1,5]naphthyridin-4-yl)-amide hydrochloride] | ≤ 4 µg/mL |
| COc1ccc2nccc(NC(=O)C3CCN(CCc4cc5c(cn4)OCCO5)CC3)c2n1 [Example 16, 1-[2-(2,3-Dihydro-[1,4]dioxino[2,3-c]pyridin-7-yl)-ethyl]-piperidine-4-carboxylic acid (6-methoxy-[1,5]naphthyridin-4-yl)-amide hydrochloride] | ≤ 4 µg/mL |

Same assay, conditions: versus all these organisms (10-strain panel); read-out: MIC

| SMILES | MIC |
| --- | --- |
| COc1ccc2nccc(NC(=O)C3CCN(CC(=O)c4ccc5c(c4)NC(=O)CO5)CC3)c2n1.O=C(O)C(=O)O [Example 13, 1-[2-Oxo-2-(3-oxo-3,4-dihydro-2H-benzo[1,4]oxazin-6-yl)ethyl]-piperidine-4-carboxylic acid (6-methoxy-[1,5]naphthyridin-4-yl)-amide oxalate] | ≤ 4 µg/mL |
| COc1ccc2nccc(NC(=O)C3CCN(CC(=O)c4ccc5c(c4)OCCO5)CC3)c2n1 [Example 14, 1-[2-(2,3-Dihydro-benzo[1,4]dioxin-6-yl)-2-oxo-ethyl]-piperidine-4-carboxylic acid (6methoxy-[1,5]naphthyridin-4-yl)-amide oxalate] | ≤ 16 µg/mL |
| COc1ccc2nccc(OCC3CCN(CC(O)c4ccc5c(c4)NC(=O)CS5)CC3)c2n1 (stereo not drawn) [Example 17, R,S-6-{1-Hydroxy-2-[4-(6methoxy-[1,5]naphthyridin-4-yloxymethyl)-piperidin-1-yl]-ethyl}-4H-benzo[1,4]thiazin-3-one hydrochloride] | ≤ 16 µg/mL |
| COc1ccc2nccc(NC(=O)C3CCN(CC(O)c4ccc5c(c4)OCCO5)CC3)c2n1 (stereo not drawn) [Example 18, R,S-1-[2-(2,3-Dihydro-benzo[1,4]dioxin-6-yl)-2-hydroxy-ethyl]-piperidine-4-carboxylic acid (6-methoxy-[1,5]naphthyridin-4-yl)-amide oxalate] | ≤ 4 µg/mL |
| COc1ccc2nccc(NC(=O)C3CCN(CC(O)c4ccc5c(c4)NC(=O)CO5)CC3)c2n1 (stereo not drawn) [Example 19, R,S-1-[2-Hydroxy-2-(3-oxo-3,4-dihydro-2H-benzo[1,4]oxazin-6-yl)-ethyl]-piperidine-4-carboxylic acid (6-methoxy-[1,5]naphthyridin-4-yl)-amide oxalate] | ≤ 16 µg/mL |
| COc1ccc2nccc(NC(=O)C3CCN(CC(O)c4ccc5c(c4)NC(=O)CS5)CC3)c2n1 (stereo not drawn) [Example 12, R,S-1-[2-Hydroxy-2-(3-oxo-3,4-dihydro-2H-benzo[1,4]thiazin-6-yl)-ethyl]-piperidine-4-carboxylic acid (6methoxy-[1,5]naphthyridin-4-yl)-amide oxalate] | ≤ 4 µg/mL |

Now from value to compound:

| MIC | SMILES |
| --- | --- |
| ≤ 64 µg/mL | COc1ccc2nccc(NC(=O)C3CCN(CCc4ccc5nsnc5c4)CC3)c2n1 [Example 5, 1-(2-Benzo[1,2,5]thiadiazol-5-yl-ethyl)-piperidine-4-carboxylic acid (6-methoxy-[1,5]naphthyridin-4-yl)-amide, dioxalate] |
| ≤ 16 µg/mL | COc1ccc2nccc(NC(=O)C3CCN(CCc4ccc5c(c4)NC(=O)CO5)CC3)c2n1 [Example 7, 1-[2-(3-Oxo-3,4-dihydro-2H-benzo-[1,4]oxazin-6-yl)ethyl]-piperidine-4-carboxylic acid (6-methoxy-[1,5]naphthyridin-4-yl)-amide, dioxalate] |
| ≤ 4 µg/mL | COc1ccc2nccc(NC(=O)C3CCN(CCc4nc5c(F)cccc5[nH]4)CC3)c2n1 [Example 4, 1-[2-(4-Fluoro-1H-benzoimidazol-2-yl)-ethyl]-piperidine-4-carboxylic acid (6-methoxy-[1,5]naphthyridin-4-yl)-amide, dioxalate] |
| ≤ 64 µg/mL | COc1ccc2nccc(NC(=O)C3CCN(CCc4ccc5c(c4)oc(=O)n5C)CC3)c2n1 [Example 6, 1-[2-(3-Methyl-2-oxo-2,3-dihydro-benzooxazol-6-yl)-ethyl]-piperidine-4-carboxylic acid (6-methoxy-[1,5]naphthyridin-4-yl)-amide, dioxalate] |
| ≤ 64 µg/mL | COc1ccc2nccc(NC(=O)C3CCN(CC(=O)c4ccc5c(c4)NC(=O)CS5)CC3)c2n1 [Example 11, 1-[2-Oxo-2-(3-oxo-3,4dihydro-2H-benzo[1,4]thiazin-6-yl)-ethyl]-piperidine-4-carboxylic acid (6-methoxy-[1,5]naphthyridin-4-yl)-amide oxalate] |
| ≤ 4 µg/mL | COc1ccc2nccc(NC(=O)C3CCN(CCc4ccc5c(c4)OCCO5)CC3)c2n1 [Example 3, 1-[2-(2,3-Dihydro-benzo[1,4]dioxin-6-yl)-ethyl]-piperidine-4-carboxylic acid (6-methoxy-[1,5]naphthyridin-4-yl)-amide, dioxalate] |
| ≤ 64 µg/mL | COc1ccc2nccc(NC(=O)C3CCN(CCc4cnc5ccccc5n4)CC3)c2n1 [Example 9, 1-(2-Quinoxalin-2-yl-ethyl)piperidine-4-carboxylic acid (6-methoxy-[1,5]naphthyridin-4-yl)-amide] |
| ≤ 4 µg/mL | COc1ccc2nccc(NC(=O)C3CCN(CCc4ccc5c(c4)NC(=O)CS5)CC3)c2n1 [Example 1, 1-[2-(3-Oxo-3,4-dihydro-2H-benzo[1,4]thiazin-6-yl)-ethyl]-piperidine-4-carboxylic acid (6methoxy-[1,5]naphthyridinylaramide oxalate] |
| ≤ 4 µg/mL | COc1ccc2nccc(NC(=O)C3CCN(CCc4ccc5c(c4)OCO5)CC3)c2n1 [Example 2, 1-(2-Benzo[1,3]dioxol-5yl-ethyl)-piperidine4-carboxylic acid (6-methoxy-[1,5]naphthyridin-4-yl)amide, dioxalate] |

From patent publication US7186730B2, “Bicyclic nitrogen-containing heterocyclic derivatives for use as antibacterials” (priority 2001, dated 2007)
